Reference: US12227498B2, “Heterocyclic amine derivative and pharmaceutical composition comprising same” (Daewoong Pharmaceutical Co., Ltd., priority 2018, dated 2025)

Experiments:
ITK = molecular target: T1, ITK (Homo sapiens, UniProt Q08881); assay: Inhibitory activity against ITK, ADP-Glo + ITK Kinase enzyme system kit (Promega); assay type: biochemical; conditions: ITK enzyme 0.4 ng/μl; 15 min preincubation at room temperature; 1 hour at 30° C.; luminescence; duplicate
T1 construct: purchased Promega Corporation
T1 sequence (Q08881 1-620): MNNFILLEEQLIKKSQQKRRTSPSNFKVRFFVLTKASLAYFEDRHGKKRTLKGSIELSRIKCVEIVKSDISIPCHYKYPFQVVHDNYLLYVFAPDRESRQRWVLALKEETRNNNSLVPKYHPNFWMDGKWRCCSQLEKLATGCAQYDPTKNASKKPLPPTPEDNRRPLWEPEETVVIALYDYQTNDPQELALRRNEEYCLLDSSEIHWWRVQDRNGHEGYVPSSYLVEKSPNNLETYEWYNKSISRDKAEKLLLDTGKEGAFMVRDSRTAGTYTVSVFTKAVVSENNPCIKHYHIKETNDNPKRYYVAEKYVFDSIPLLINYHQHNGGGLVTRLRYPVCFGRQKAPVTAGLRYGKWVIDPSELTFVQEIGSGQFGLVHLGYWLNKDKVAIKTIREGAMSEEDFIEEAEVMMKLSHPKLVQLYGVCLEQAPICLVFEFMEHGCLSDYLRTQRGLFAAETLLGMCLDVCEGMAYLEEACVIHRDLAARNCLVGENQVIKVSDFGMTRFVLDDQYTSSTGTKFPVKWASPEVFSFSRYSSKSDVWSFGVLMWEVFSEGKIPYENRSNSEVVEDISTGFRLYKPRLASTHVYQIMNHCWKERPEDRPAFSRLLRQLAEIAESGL
Protocol: (§1) Inhibitory activities against BTK and ITK were measured for the compounds prepared in the above Examples as follows.
The inhibitory activity against ITK was evaluated using ‘ADP-Glo™+ITK Kinase enzyme system’ kit (Promega Corporation). […] To the plate on which reactions were completed, 5 μl of substrate and 5 μl of ATP prepared so as to have a final concentration of […] were added and then allowed to react at 30° C. for 1 hour. All wells of the plate were treated with 25 μl of ADP-Glo™ reagent and then allowed to react at 30° C. for 40 minutes. After that, all wells were treated with 50 μl of kinase detection buffer, and then allowed to react at 30° C. for 30 minutes under light shielding conditions. For the plate on which all reactions were completed, luminescence was measured and the results were calculated. Evaluation was carried out in duplicate, and negative control and positive control were calculated depending on whether or not the enzyme was added without treatment of the compound. The IC50 was calculated based on the calculated values.

BTK = molecular target: T2, BTK (Homo sapiens, UniProt Q06187); assay: Inhibitory activity against BTK, ADP-Glo + BTK Kinase enzyme system kit (Promega); assay type: biochemical; conditions: BTK enzyme 1 ng/μl; ATP 10 µM; 15 min preincubation at room temperature; 1 hour at 30° C.; luminescence; duplicate
T2 construct: purchased Promega Corporation
Protocol: as §1
The inhibitory activities against BTK were evaluated using ‘ADP-Glo™+BTK Kinase enzyme system’ kit (Promega Corporation). […] 5 μl of substrate and 5 μl of ATP prepared so as to have a final concentration of 10 µM were added to the plate on which reactions were completed, and then allowed to react at 30° C. for 1 hour. All wells of the plate were treated with 25 μl of ADP-Glo™ reagent and allowed to react at 30° C. for 40 minutes. After that, all wells were treated with 50 μl of kinase detection buffer, and then reacted at 30° C. for 30 minutes under light shielding conditions. For the plate on which all reactions were completed, luminescence was measured and the results were calculated. Evaluation was carried out in duplicate, and negative control and positive control were calculated depending on whether or not the enzyme was added without treatment of the compound. The IC50 was calculated based on the calculated values.

T2 sequence (Q06187 whole entry): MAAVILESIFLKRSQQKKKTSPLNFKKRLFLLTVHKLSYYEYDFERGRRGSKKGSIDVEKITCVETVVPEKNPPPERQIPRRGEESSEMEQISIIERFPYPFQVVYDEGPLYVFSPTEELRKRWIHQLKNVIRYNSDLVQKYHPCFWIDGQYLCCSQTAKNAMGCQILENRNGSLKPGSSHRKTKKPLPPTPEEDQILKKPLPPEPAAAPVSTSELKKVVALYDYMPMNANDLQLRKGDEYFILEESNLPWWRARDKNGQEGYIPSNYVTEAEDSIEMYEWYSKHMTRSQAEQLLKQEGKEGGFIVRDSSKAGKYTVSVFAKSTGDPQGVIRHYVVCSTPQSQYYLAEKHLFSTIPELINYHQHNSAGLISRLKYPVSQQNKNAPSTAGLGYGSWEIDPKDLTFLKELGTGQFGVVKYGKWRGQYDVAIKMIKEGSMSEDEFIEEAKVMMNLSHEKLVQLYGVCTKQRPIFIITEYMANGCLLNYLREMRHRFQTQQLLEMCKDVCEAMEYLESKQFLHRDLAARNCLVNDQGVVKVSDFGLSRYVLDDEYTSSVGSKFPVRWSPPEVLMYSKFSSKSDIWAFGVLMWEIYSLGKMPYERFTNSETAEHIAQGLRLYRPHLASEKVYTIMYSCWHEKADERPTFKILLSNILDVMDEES

Structure (SMILES) | IC50 (ITK) [nM] | IC50 (BTK) [nM]
CC#CC(=O)N1CCC[C@H](Nc2cc(CN3CCOCC3)cc(Nc3ncc(C)s3)n2)C1 [Example 18, (S)-1-(3-((6-((5-methylthiazol-2-yl)amino)-4-(morpholinomethyl)pyridin-2-yl)amino)piperidin-1-yl) but-2-yn-1-one] | 50.5 | 5.2
Cc1cc(CN2CCOCC2)cc(Nc2ncc(C)s2)n1 [Example 44, 5-methyl-N-(6-methyl-4-(morpholinomethyl)pyridin-2-yl) thiazol-2-amine] | ~1000 | > 1000
C=CC(=O)N1CCCC(Nc2nc(CN3CCOCC3)cc(Nc3ncc(C)s3)n2)C1 (stereo not drawn) [Example 17, 1-(3-((4-((5-methylthiazol-2-yl)amino)-6-(morpholinomethyl)pyrimidin-2-yl)amino)piperidin-1-yl) prop-2-en-1-one] | 1.9 | 1.5
C=CC(=O)N1CCC[C@H](Nc2cc(CN3CCN(C(C)=O)CC3)cc(Nc3ncc(C)s3)n2)C1 [Example 20] | 1.1 | 1.1
Cc1cnc(Nc2cc(CN3CCOCC3)cc(N[C@H]3CCCN(C(=O)/C=C/Cl)C3)n2)s1 [Example 46, (S,E)-3-chloro-1-(3-(6-(5-methylthiazol-2-ylamino)-4-(morpholinomethyl)pyridin-2-ylamino)piperidin-1-yl) prop-2-en-1-one] | 31.8 | 5.2
C=CC(=O)N1CCC[C@H](Nc2cc(CN3CCOCC3)cc(Nc3ncc(C(F)(F)F)s3)n2)C1 [Example 49, (S)-1-(3-(4-(morpholinomethyl)-6-(5-(trifluoromethyl)thiazol-2-ylamino)pyridin-2-ylamino)piperidin-1-yl) prop-2-en-1-one] | 3 | 2
